± gives the expanded uncertainty stated by the source.

Assay in the first data set: not given
The settings on record: 308.15 K; 101.33 kPa; Liquid; Sing-around technique in a fixed-path interferometer.
Usually speed of sound stands for the propagation velocity of pressure waves in the medium. In the case of `CCC(C)Cl` (stereo not drawn) [2-chlorobutane], the speed of sound stood at 1025.3 ± 1.1 m/s.
In the case of `CC(C)(C)Cl` [2-chloro-2-methylpropane], the speed of sound amounted to 940.46 ± 1.1 m/s.
The same measure, in the same setting: the figure for `CC(C)OC(C)C` [diisopropyl ether] is 953.94 ± 1.1 m/s.

Still in this data set, the particulars now being: 308.15 K; 101.33 kPa; Liquid; Vibrating tube method.
As usually defined, the mass density is the mass of a sample divided by its volume. `CC(C)CCl` [1-chloro-2-methylpropane]: the mass density worked out at 860.319 ± 0.23 kg/m3.
The same measure, in the same setting: in the case of `CCCCCl` [1-chlorobutane] it was 869.585 ± 0.23 kg/m3; in that of `CCC(C)Cl` (stereo not drawn) [2-chlorobutane], 856.044 ± 0.23 kg/m3.
On the same count and under the same terms, the figure for `CC(C)(C)Cl` [2-chloro-2-methylpropane] is 824.772 ± 0.23 kg/m3; for `CC(C)OC(C)C` [diisopropyl ether] it is 707.727 ± 0.25 kg/m3.

Staying with this data set, now noted: 313.15 K; 101.33 kPa; Liquid; Sing-around technique in a fixed-path interferometer.
For `CC(C)CCl` [1-chloro-2-methylpropane], the speed of sound stood at 1016.3 ± 1.1 m/s.
Take `CCCCCl` [1-chlorobutane]: the speed of sound is 1056.9 ± 1.1 m/s.
On the same count and under the same terms, in the case of `CCC(C)Cl` (stereo not drawn) [2-chlorobutane] it was 1005.3 ± 1.1 m/s.
Still for that read-out and setting: the figure for `CC(C)(C)Cl` [2-chloro-2-methylpropane] is 919.41 ± 1.1 m/s.
Still for that read-out and setting: the figure for `CC(C)OC(C)C` [diisopropyl ether] is 932.01 ± 1.1 m/s.

Still in this data set, the particulars now being: 313.15 K; 101.33 kPa; Liquid; Vibrating tube method.
Turning to `CC(C)CCl` [1-chloro-2-methylpropane], the mass density was found to be 854.502 ± 0.23 kg/m3.
Same read-out and setting: the figure for `CCCCCl` [1-chlorobutane] is 863.882 ± 0.23 kg/m3.
For the compound `CCC(C)Cl` (stereo not drawn) [2-chlorobutane], the mass density was found to be 850.266 ± 0.23 kg/m3.
Still for that read-out and setting: the figure for `CC(C)(C)Cl` [2-chloro-2-methylpropane] is 818.536 ± 0.24 kg/m3.
Same read-out and setting: in the case of `CC(C)OC(C)C` [diisopropyl ether] it was 702.378 ± 0.25 kg/m3.

Another data set is described as follows: refractive index (Na D-line) (dimensionless). The settings on record: 283.15 K; 101.33 kPa; Liquid; Standard Abbe refractometry.
Usually refractive index stands for the speed of light in vacuum divided by its phase velocity in the sample. For the compound `CC(C)CCl` [1-chloro-2-methylpropane], the refractive index stood at 1.40354 ± 0.00037.
On the same count and under the same terms, the figure for `CCCCCl` [1-chlorobutane] is 1.4075 ± 0.00037; for `CCC(C)Cl` (stereo not drawn) [2-chlorobutane] it is 1.40226 ± 0.00037.
Same read-out and setting: in the case of `CC(C)(C)Cl` [2-chloro-2-methylpropane] it was 1.39115 ± 0.00037; in that of `CC(C)OC(C)C` [diisopropyl ether], 1.37358 ± 0.00037.

The data set is the same for the next values; noted with them: 288.15 K; 101.33 kPa; Liquid; Standard Abbe refractometry.
For `CC(C)CCl` [1-chloro-2-methylpropane], the refractive index amounted to 1.4008 ± 0.00037.
Same read-out and setting: in the case of `CCCCCl` [1-chlorobutane] it was 1.40481 ± 0.00037; in that of `CCC(C)Cl` (stereo not drawn) [2-chlorobutane], 1.39953 ± 0.00037; in that of `CC(C)(C)Cl` [2-chloro-2-methylpropane], 1.38821 ± 0.00037.
Consider `CC(C)OC(C)C` [diisopropyl ether], for which the refractive index is recorded as 1.37084 ± 0.00037.

The data set is the same for the next values; noted with them: 293.15 K; 101.33 kPa; Liquid; Standard Abbe refractometry.
Consider `CC(C)CCl` [1-chloro-2-methylpropane], for which the refractive index amounted to 1.39802 ± 0.00037.
Still for that read-out and setting: in the case of `CCCCCl` [1-chlorobutane] it was 1.40212 ± 0.00037; in that of `CCC(C)Cl` (stereo not drawn) [2-chlorobutane], 1.3968 ± 0.00037; in that of `CC(C)(C)Cl` [2-chloro-2-methylpropane], 1.38522 ± 0.00037.
Still for that read-out and setting: the figure for `CC(C)OC(C)C` [diisopropyl ether] is 1.36812 ± 0.00037.

The same data set, now with this note: 298.15 K; 101.33 kPa; Liquid; Standard Abbe refractometry.
As for `CC(C)CCl` [1-chloro-2-methylpropane], the refractive index was 1.39529 ± 0.00037.
With `CCCCCl` [1-chlorobutane], the refractive index is 1.3995 ± 0.00037.
For `CCC(C)Cl` (stereo not drawn) [2-chlorobutane], the refractive index stood at 1.39404 ± 0.00037.
`CC(C)(C)Cl` [2-chloro-2-methylpropane]: the refractive index amounted to 1.38225 ± 0.00037.
As for `CC(C)OC(C)C` [diisopropyl ether], the refractive index was 1.36525 ± 0.00037.

Staying with this data set, now noted: 303.15 K; 101.33 kPa; Liquid; Standard Abbe refractometry.
For `CC(C)CCl` [1-chloro-2-methylpropane], the refractive index was found to be 1.39245 ± 0.00037.
On the same count and under the same terms, in the case of `CCCCCl` [1-chlorobutane] it was 1.39672 ± 0.00037.
Same read-out and setting: the figure for `CCC(C)Cl` (stereo not drawn) [2-chlorobutane] is 1.39125 ± 0.00037; for `CC(C)(C)Cl` [2-chloro-2-methylpropane] it is 1.37921 ± 0.00037; for `CC(C)OC(C)C` [diisopropyl ether] it is 1.36242 ± 0.00037.

Still in this data set, the particulars now being: 308.15 K; 101.33 kPa; Liquid; Standard Abbe refractometry.
On to `CC(C)CCl` [1-chloro-2-methylpropane], for which the refractive index amounted to 1.38963 ± 0.00037.
Still for that read-out and setting: the figure for `CCCCCl` [1-chlorobutane] is 1.39395 ± 0.00037; for `CCC(C)Cl` (stereo not drawn) [2-chlorobutane] it is 1.38844 ± 0.00037; for `CC(C)(C)Cl` [2-chloro-2-methylpropane] it is 1.37619 ± 0.00037.
For the compound `CC(C)OC(C)C` [diisopropyl ether], the refractive index is given as 1.35956 ± 0.00037.

The same data set, now with this note: 313.15 K; 101.33 kPa; Liquid; Standard Abbe refractometry.
For the compound `CC(C)CCl` [1-chloro-2-methylpropane], the refractive index was found to be 1.38683 ± 0.00037.
For the compound `CCCCCl` [1-chlorobutane], the refractive index came to 1.39131 ± 0.00037.
Still for that read-out and setting: the figure for `CCC(C)Cl` (stereo not drawn) [2-chlorobutane] is 1.38562 ± 0.00037.
The same measure, in the same setting: the figure for `CC(C)(C)Cl` [2-chloro-2-methylpropane] is 1.37312 ± 0.00037.
The same measure, in the same setting: the figure for `CC(C)OC(C)C` [diisopropyl ether] is 1.35667 ± 0.00037.

The values are drawn from the NIST ThermoML archive (doi:10.1021/je100765j).
